Patent publication US20260240862A1, “COMBINATION OF ROGINOLISIB AND BCL-2 INHIBITOR IN THE TREATMENT OF HAEMATOLOGICAL MALIGNANCY” (IONCTURA SA, priority 2023, published 2026)

Tests used:
Granta519 (MCL) = assay: MTT antiproliferation assay, combination of Compound 1 and BCL-2 inhibitor, Chou-Talalay Combination Index; type: cell-based; settings: BCL-2 inhibitor in combination with Compound 1, 72 hours
Description: (§1) Venetoclax, S55746, S64315, and S63845, were used at a maximum concentration of 10 μM, following an eight fold dose response based on 1:4 compound dilutions plus an untreated control.
(§2) Cells were incubated for 72 hours at 37° C. and 5% CO2. The antiproliferative effect of single and combination treatments were determined by adding 20 μL MTT [3-(4,5-dimethylthiazolyl-2)-2, 5-diphenyltetrazoliumbromide]reagent (Sigma Aldrich, Buchs, Switzerland) to each well and the plates were incubated at 37° C. for 4 hours, followed by adding 50 μL of sodium dodecyl sulfate (SDS) (250 μM SDS, 0.21% fuming HCl) lysis buffer. The lysed cells were kept overnight, and then the absorbance was read at 570 nm using the Cytation 3 instrument (BioTek, Winoosku, VT, USA). […] The effect of the combinations was defined as strongly synergistic for CI values below <0.3, synergistic for CI values between 0.3 and 0.9, additive for CI values between 0.9 and 1.1, and antagonistic for CI values >1.1.

JVM2 (MCL) = assay: as above; type: cell-based; settings: BCL-2 inhibitor in combination with Compound 1, 72 hours
Description: as §1, §2

MJ (CTCL) = assay: as above; type: cell-based; settings: BCL-2 inhibitor in combination with Compound 1, 72 hours
Description: as §1, §2

TMD8 (DLBCL) = assay: as above; type: cell-based; settings: BCL-2 inhibitor in combination with Compound 1, 72 hours
Description: as §1, §2

MEC1 (CLL) = assay: as above; type: cell-based; settings: BCL-2 inhibitor in combination with Compound 1, 72 hours
Description: as §1, §2

SP49 (MCL) = assay: as above; type: cell-based; settings: BCL-2 inhibitor in combination with Compound 1, 72 hours
Description: as §1, §2

DNMT = settings: more than that of azacytidine (Zhang 2022); cited from earlier work

Compound | CI value (median) (Granta519 (MCL)) | CI value (median) (JVM2 (MCL)) | CI value (median) (MJ (CTCL)) | CI value (median) (TMD8 (DLBCL)) | CI value (median) (MEC1 (CLL)) | CI value (median) (SP49 (MCL)) | inhibitory activity of DNMT relative to azacytidine (DNMT)
Cc1c(-c2c(-c3ccc(F)o3)sc3ncnc(O[C@H](Cc4ccccc4OCc4ccnn4CC(F)(F)F)C(=O)O)c23)ccc(OCCN2CCN(C)CC2)c1Cl (atropisomer, axis not shown) [Compound S63845, (R)-2-((5-(3-chloro-2-methyl-4-(2-(4-methylpiperazin-1-yl)ethoxy)phenyl)-6-(5-fluorofuran-2-yl)thieno[2,3-d]pyrimidin-4-yl)oxy)-3-(2-((1-(2,2,2-trifluoroethyl)-1H-pyrazol-5-yl)methoxy)phenyl)propanoic acid] | 0.47 | 0.33 | 0.67 | 0.86 | – | – | –
COc1ccccc1-c1nccc(COc2ccccc2C[C@@H](Oc2ncnc3sc(-c4ccc(F)cc4)c(-c4ccc(OCCN5CCN(C)CC5)c(Cl)c4C)c23)C(=O)O)n1 (atropisomer, axis not shown) [Compound S64315, (R)-2-((5-(3-chloro-2-methyl-4-(2-(4-methylpiperazin-1-yl)ethoxy)phenyl)-6-(4-fluorophenyl)thieno[2,3-d]pyrimidin-4-yl)oxy)-3-(2-((2-(2-methoxyphenyl)pyrimidin-4-yl)methoxy)phenyl)propanoic acid] | – | 0.24 | – | 0.23 | 0.88 | 0.71 | –
O=C(c1cc(-c2cc3c(cc2C(=O)N2Cc4ccccc4C[C@H]2CN2CCOCC2)OCO3)n2c1CCCC2)N(c1ccccc1)c1ccc(O)cc1 [Compound S55746, (S)—N-(4-hydroxyphenyl)-3-(6-(3-(morpholinomethyl)-1,2,3,4-tetrahydroisoquinoline-2-carbonyl)benzo[d][1,3]dioxol-5-yl)-N-phenyl-5,6,7,8-tetrahydroindolizine-1-carboxamide] | – | 0.46 | – | 0.4 | 0.21 | – | –
Nc1ncn([C@H]2C[C@H](O)[C@@H](CO)O2)c(=O)n1 [Decitabine, 5-aza-2′-deoxycytidine] | – | – | – | – | – | – | 30 times
CC1(C)CCC(CN2CCN(c3ccc(C(=O)NS(=O)(=O)c4ccc(NCC5CCOCC5)c([N+](=O)[O-])c4)c(Oc4cnc5[nH]ccc5c4)c3)CC2)=C(c2ccc(Cl)cc2)C1 [Venetoclax, 4-(4-{[2-(4-Chlorophenyl)-4,4-dimethyl-1-cyclohexen-1-yl]methyl}-1-piperazinyl)-N-({3-nitro-4-[(tetrahydro-2H-pyran-4-ylmethyl)amino]phenyl}sulfonyl)-2-(1H-pyrrolo[2,3-b]pyridin-5-yloxy)benzamide] | 0.81 | 0.15 | 0.47 | – | 0.05 | – | –
